Test results: publication PMC9841525, “Chemical Blockage of the Mitochondrial Rhomboid Protease PARL by Novel Ketoamide Inhibitors Reveals Its Role in PINK1/Parkin-Dependent Mitophagy” (Journal of Medicinal Chemistry, 2022)
*1 amine or outer side, *2 acyl side, *3 side chain or, on linkers, in order; H or OH if unused. Where a SMILES comes first, the peptide text is derived from it. [ ]: non-standard residue; d: D form. The star is where a group is joined. NH(4-phenylbutyl) = c1ccc(CCCCN*)cc1; X1 = C[C@H](N[*:1])C(=O)C(=O)[*:2]

Target: T1, PARL (Homo sapiens, UniProt Q9H300)
T1 sequence (Q9H300 53-379): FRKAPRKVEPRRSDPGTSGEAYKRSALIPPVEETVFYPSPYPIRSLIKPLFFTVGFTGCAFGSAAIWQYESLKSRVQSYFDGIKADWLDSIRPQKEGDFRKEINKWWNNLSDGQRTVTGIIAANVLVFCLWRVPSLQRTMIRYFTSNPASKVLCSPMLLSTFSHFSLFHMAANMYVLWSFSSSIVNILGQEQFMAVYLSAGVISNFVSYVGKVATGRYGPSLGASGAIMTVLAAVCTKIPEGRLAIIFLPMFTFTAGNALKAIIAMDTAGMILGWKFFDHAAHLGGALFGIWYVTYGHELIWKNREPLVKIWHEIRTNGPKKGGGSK
Test: PARL inhibition in vitro, PARL in liposomes with substrate compound 4
Type: biochemical
Design: hexahistidine tag (C); made in house; host or cells: continuous-exchange cell-free expression in bacterial lysates with T7 polymerase (CUBE biotech), into liposomes
Procedure: Liposome preparation and cell-free protein expression of PARL were carried out essentially as described previously.[27] Liposomes resembling the lipid composition of the IMM were prepared by mixing 40% DOPC (1,2-dioleoyl-sn-glycero-3-phosphocholine), 33.8% DOPE (1,2-dioleoyl-sn-glycero-3-phosphoethanolamine), 18% CL(18:1)4 (1′,3′-bis[1,2-dioleyl-sn-glycero-3-phospho]-glycerol), 3% DOPS (1,2-dioleoyl-sn-glycero-3-phospho-L-serine), 5% soy-PI (L-α-phosphatidylinositol), and 0.2% rhodamine-PE (1,2-dioleoyl-sn-glycero-3-phosphoethanolamine-N-(lissamine rhodamine B sulfonyl)) in chloroform, followed by the evaporation of chloroform by a stream of nitrogen gas and drying in a vacuum chamber (Binder) for 1 h. Dried lipids were dissolved in buffer (5 mM Tris/HCl, pH 8.5, 10 mM KOAc) and extruded 21 times through a mini extruder (Avanti Polar Lipids) using a polycarbonate membrane with a pore size of […]. […] The PARL-containing liposomes were purified by a step-wise sucrose step-gradient centrifugation (0, 15, 30, and 40% sucrose in 5 mM HEPES pH 7.5 with 25 mM NaCl) for 2 h at 200,000 × g. Soluble proteoliposomes were harvested at the 0%/15% sucrose interface after the centrifugation. Concentration of PARL was determined by absorption at 280 nm.
PARL inhibition in vitro was measured in 5 mM Tris, 5 mM Mg(OAc)2, 25 μM Zn(OAc)2, 0.1 μg/μL BSA, 10% DMSO, pH 8.0 using PARL in liposomes at 0.07 mg/mL and compound 4 at 100 μM final concentration. Inhibitor concentrations were determined by quantitative amino acid analysis. Inhibitors in DMSO were dissolved at the respective concentrations into the reaction buffer by vigorous mixing at 1000 rpm, 37 °C for 40 min and then pre-incubated with PARL in liposomes at 37° for 1 h. The cleavage reaction was started by adding compound 4 and carried out at 37 °C in 96-well black HTS plates (Greiner Bio-One). Fluorescence was read in a plate reader (Tecan Infinite M1000) with excitation and emission wavelengths set to 355 and 450 nm, respectively. Data were evaluated using Excel (Microsoft) and GraphPad Prism 9 (GraphPad Software, Inc.). The data shown are representative of at least three independent experiments.

Fold better than compound 6 in vitro (ratio of IC50 values, compound 5 vs compound 6): about 3 fold | IC50 (recombinant mature PARL in liposomes, 100 μM substrate compound 4, mean ± SEM of three or four measurements): 28 nM
Structure (SMILES): CC(=O)N[C@@H](C)C(=O)N[C@H](C(=O)N[C@@H](Cc1ccccc1)C(=O)N[C@@H](CC(C)C)C(=O)N[C@@H](C)C(=O)C(=O)NCCCCc1ccccc1)C(C)C [compound 5] (Ac-AVFL[X1]-{NH(4-phenylbutyl)})
